Reference: ChEMBL document CHEMBL1150706, “Novel chromones from Spathelia sorbifolia” (1987)
≈ marks a conversion by molar mass, not a printed value.

Assay: Cytotoxicity against mouse 9PS cells
Assay type: functional
Conditions: read-out: ED50 (the source's name)

SMILES | EC50
COc1c(/C=C/C(C)(C)O)c2c(c3oc(C)cc(=O)c13)C=CC(C)(C)O2 | 0.3 µg/mL (≈ 0.842 µM)
Cc1cc(=O)c2c(O)c3c(c(C(O)C(O)C(C)(C)O)c2o1)OC(C)(C)C=C3 (stereo not drawn) | 0.5 µg/mL (≈ 1.33 µM)
Cc1cc(=O)c2c(O)c3c(c(CC(O)C(C)(C)O)c2o1)OC(C)(C)C=C3 (stereo not drawn) [SPATHELIABISCHROMEN] | 3 µg/mL (≈ 8.32 µM)
